Where a name gives a salt, the structure may show the parent alone. Read-outs that look alike come from different tables or passages of the source.
Legend:
[1] = molecular target: T1, human Y5 receptor (Homo sapiens, UniProt Q15761); assay: Radioligand binding to membranes, cloned human Y5 receptor
T1 construct: expressed in transfected cells; host or cells: mouse fibroblast LM(tk-) cells, e.g. L-hY5-7 (ATCC CRL-11995)
T1 sequence (Q15761 1-445): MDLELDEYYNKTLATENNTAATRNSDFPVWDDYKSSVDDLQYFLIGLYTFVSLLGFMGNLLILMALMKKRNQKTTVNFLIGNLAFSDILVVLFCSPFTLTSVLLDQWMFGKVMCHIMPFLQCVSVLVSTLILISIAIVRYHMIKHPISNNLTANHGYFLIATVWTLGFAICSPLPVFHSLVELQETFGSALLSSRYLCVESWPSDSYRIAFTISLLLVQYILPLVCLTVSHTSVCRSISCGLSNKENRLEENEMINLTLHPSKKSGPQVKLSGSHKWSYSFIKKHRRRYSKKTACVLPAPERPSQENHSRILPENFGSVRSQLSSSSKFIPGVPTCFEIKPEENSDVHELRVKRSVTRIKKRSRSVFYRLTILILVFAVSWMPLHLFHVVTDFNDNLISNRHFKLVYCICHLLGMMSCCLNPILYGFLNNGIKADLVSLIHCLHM
Method: (§1) Binding of the compounds of the present invention to human Y1, Y2, Y4, and Y5 receptors was evaluated using stably transfected 293 or LM(tk-) cells as described above.
(§2) Membranes were harvested from COS-7 cells 48 hours after transient transfection. Adherent cells were washed twice in ice-cold phosphate buffered saline (138 mM NaCl, 8.1 mM Na2HPO4, 2.5 mM KCl, 1.2 mM KH2PO4, 0.9 mM CaCl2, 0.5 mM MgCl2, pH 7.4) and lysed by sonication in ice-cold sonication buffer (20 mM Tris-HCl, 5 mM EDTA, pH 7.7). Large particles and debris were cleared by low speed centrifugation (200×g, 5 min, 4° C.). Membranes were collected from the supernatant fraction by centrifugation (32,000×g, 18 min, 4° C.), washed with ice-cold hypotonic buffer, and collected again by centrifugation (32,000×g, 18 min, 4° C.). The final membrane pellet was resuspended by sonication into a small volume of ice-cold binding buffer (˜1 ml for every 5 plates: 10 mM NaCl, 20 mM HEPES, 0.22 mM KH2PO4, 1.26 mM CaCl2, 0.81 mM MgSO4, pH 7.4). Protein concentration was measured by the Bradford method (Bradford, 1976) using Bio-Rad Reagent, with bovine serum albumin as a standard. Membranes were held on ice for up to one hour and used fresh, or flash-frozen and stored in liquid nitrogen.
(§3) Membranes were prepared similarly from 293, LM(tk-), and NIH-3T3 cells.
(§4) Membrane suspensions were diluted in binding buffer supplemented with 0.1% bovine serum albumin to yield an optimal membrane protein concentration so that ^125I-PYY (or alternative radioligand such as ^125I-NPY, ^125I-NYY3-36, or ^125I-[Leu^31Pro^34]PYY) bound by membranes in the assay was less than 10% of ^125I-PYY (or alternative radioligand) delivered to the sample (100,000 dpm/sample=0.08 nM for competition binding assays). ^125I-PYY (or alternative radioligand) and peptide competitors were also diluted to desired concentrations in supplemented binding buffer. Individual samples were then prepared in 96-well polypropylene microtiter plates by mixing ^125I-PYY (25 μL) (or alternative radioligand), competing peptides or supplemented binding buffer (25 μL), and finally, membrane suspensions (200 μL). Samples were incubated in a 30° C. water bath with constant shaking for 120 min. Incubations were terminated by filtration over Whatman GF/C filters (pre-coated with 1% polyethyleneimine and air-dried before use), followed by washing with 5 mL of ice-cold binding buffer. Filter-trapped membranes were impregnated with MeltiLex solid scintillant (Wallac, Turku, Finland) and counted for ^125I in a Wallac Beta-Plate Reader. Alternatively, incubations were carried out in GF/C filter plates (pre-coated with 1% polyethyleneimine and air-dried before use), followed by vacuum filtration and three washes of 300 μL of ice-cold binding buffer. 50 μL of UltimaGold (Packard) scintillant were added and counted for ^125I, in a Wallac MicroBeta Trilux. Non-specific binding was defined by 300 nM human NPY for all receptors except the Y4 subtypes; 100 nM human PP was used for the human Y4 and 100 nM rat PP for the rat Y4.

[2] = molecular target: T2, human Y1 receptor (Homo sapiens, UniProt P25929); assay: Radioligand binding to membranes, cloned human Y1 receptor; details: text b745; read-out: Ki (nM) NPY (Y1)
T2 construct: expressed in transfected cells; host or cells: human embryonic kidney 293 cells, e.g. 293-hY1-5 (ATCC CRL-12121)
T2 sequence (P25929 1-384): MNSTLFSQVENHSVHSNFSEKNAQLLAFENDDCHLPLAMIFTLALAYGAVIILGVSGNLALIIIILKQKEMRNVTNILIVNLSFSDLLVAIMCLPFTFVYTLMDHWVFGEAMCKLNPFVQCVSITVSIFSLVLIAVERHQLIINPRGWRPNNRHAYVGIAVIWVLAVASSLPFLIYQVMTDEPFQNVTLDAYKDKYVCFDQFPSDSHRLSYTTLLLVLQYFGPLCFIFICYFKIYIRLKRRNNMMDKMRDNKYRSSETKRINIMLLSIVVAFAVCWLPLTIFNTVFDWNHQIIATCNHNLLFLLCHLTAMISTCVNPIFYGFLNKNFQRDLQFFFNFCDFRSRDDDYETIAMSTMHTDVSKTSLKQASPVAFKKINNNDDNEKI
Method: as §1, §2, §3, §4

[3] = molecular target: T3, human Y4 receptor (Homo sapiens, UniProt P50391); assay: Radioligand binding to membranes, cloned human Y4 receptor; details: text b745; read-out: Ki (nM) NPY (Y4)
T3 construct: expressed in transfected cells; host or cells: mouse fibroblast LM(tk-) cells, e.g. L-hY4-3 (ATCC CRL-11779)
Method: as §1, §2, §3, §4

[4] = molecular target: T1, human Y5 receptor; assay: Functional assay: radioimmunoassay of cAMP in stably transfected cells; format: cell-based; details: Functional Antagonism Data, Table 7
Method: LM(tk-) cells stably transfected with the human Y5 receptor were routinely converted from an adherent monolayer to a viable suspension. Adherent cells were harvested with trypsin at the point of confluence, resuspended in a minimal volume of complete DMEM for a cell count, and further diluted to a concentration of 10^6 cells/ml in suspension media (10% bovine calf serum, 10% 10× Medium 199 (Gibco), 9 mM NaHCO3, 25 mM glucose, 2 mM L-glutamine, 100 units/ml penicillin/100 μg/ml streptomycin, and 0.05% methyl cellulose). The cell suspension was maintained in a shaking incubator at 37° C., 5% CO2 for 24 hours. Membranes harvested from cells grown in this manner may be stored as large, uniform batches in liquid nitrogen. Alternatively, cells may be returned to adherent cell culture in complete DMEM by distribution into 96-well microtiter plates coated with poly-D-lysine (0.01 mg/ml) followed by incubation at 37° C., 5% CO2 for 24 hours.
Stably transfected cells were seeded into 96-well microtiter plates and cultured until confluent. […] Cells were washed in […] buffered saline, or HBS (150 mM NaCl, 20 mM HEPES, 1 mM CaCl2, 5 mM KCl, 1 mM MgCl2, and 10 mM glucose) supplemented with 0.1% bovine serum albumin plus 5 mM theophylline and pre-equilibrated in the same solution for 20 min at 37° C. in 5% CO2. Cells were then incubated 5 min with 10 μM forskolin and various concentrations of receptor-selective ligands. The assay was terminated by the removal of HBS and acidification of the cells with 100 mM HCl. Intracellular cAMP was extracted and quantified with a modified version of a magnetic bead-based radioimmunoassay (Advanced Magnetics, Cambridge, Mass.). The final antigen/antibody complex was separated from free ^125I-cAMP by vacuum filtration through a PVDF filter in a microtiter plate (Millipore, Bedford, Mass.). Filters were punched and counted for ^125I, in a Packard gamma counter.

[5] = molecular target: T4, human Y2 receptor (Homo sapiens, UniProt P49146); assay: Radioligand binding to membranes, cloned human Y2 receptor
T4 sequence (P49146 1-381): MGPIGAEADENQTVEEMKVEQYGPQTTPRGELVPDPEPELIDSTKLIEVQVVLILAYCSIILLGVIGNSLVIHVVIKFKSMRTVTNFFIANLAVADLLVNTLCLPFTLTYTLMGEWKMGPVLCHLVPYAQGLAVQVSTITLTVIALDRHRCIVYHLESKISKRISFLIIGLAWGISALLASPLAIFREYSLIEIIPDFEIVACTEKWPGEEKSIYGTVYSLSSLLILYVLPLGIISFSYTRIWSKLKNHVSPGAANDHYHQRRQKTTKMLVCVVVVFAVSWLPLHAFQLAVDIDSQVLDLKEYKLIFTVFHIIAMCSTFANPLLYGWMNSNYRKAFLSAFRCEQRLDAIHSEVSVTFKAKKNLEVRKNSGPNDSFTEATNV
Method: as §1, §2, §3, §4

[6] = Table 6, read-out: Ki, nM hNPY-5

T3 sequence (P50391 whole entry): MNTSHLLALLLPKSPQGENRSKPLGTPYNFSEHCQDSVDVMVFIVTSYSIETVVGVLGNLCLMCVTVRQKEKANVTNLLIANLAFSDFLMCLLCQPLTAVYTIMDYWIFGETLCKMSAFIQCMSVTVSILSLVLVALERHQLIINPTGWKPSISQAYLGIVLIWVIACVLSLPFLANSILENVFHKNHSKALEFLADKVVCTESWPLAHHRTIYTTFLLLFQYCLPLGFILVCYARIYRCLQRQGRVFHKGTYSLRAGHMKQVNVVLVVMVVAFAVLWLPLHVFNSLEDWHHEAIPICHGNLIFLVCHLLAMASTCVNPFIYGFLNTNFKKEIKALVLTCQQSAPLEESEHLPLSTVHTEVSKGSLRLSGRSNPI

Row | Compound | Kb [4] | melting point | other results
1 | CC(C)Nc1nc(Cl)nc(NCC2CCC(CNS(=O)(=O)c3cccc4ccccc34)CC2)n1 (centres unmarked) [Example 49, N1-{[4-({[4-chloro-6-(isopropylamino)-1,3,5-triazin-2-yl]amino}methyl)cyclohexyl]methyl}-1-naphthalenesulfonamide] | 1000 nM |  | Ki ([1]; Table 3, read-out: Ki (nM) hNPY-5): 138 nM; Ki [2]: > 100000 nM; Ki [3]: > 100000 nM; Ki [5]: > 100000 nM
2 | CS(=O)(=O)NC[C@H]1CC[C@H](Nc2nc3c(s2)CCSc2ccccc2-3)CC1 [Example 104, N-{[4-(4,5-Dihydrobenzo[2,3]thiepino[4,5-d][1,3]thiazol-2-ylamino)cyclohexyl]methyl}-methanesulfonamide] | 2.51 nM |  | Ki [1, 6]: 6.8 nM
3 | Cc1nc(-c2csc(N[C@H]3CC[C@H](CNS(=O)(=O)N(C)C)CC3)n2)c(C)s1 [Example 98, trans-N′-[(4-[4-(2,5-dimethyl-1,3-thiazol-4-yl)-1,3-thiazol-2-yl]aminocyclohexyl)methyl]-N,N-dimethylsulfamide] | 3.98 nM |  | Ki ([1]; Table 5, read-out: Ki, nM hNPY-5): 1.5 nM
4 | O=S(=O)(NCCCCCNc1nc(-c2ccccn2)cs1)c1ccc(F)c(F)c1 (as salt: chloride) [Example 64, 2-(5-(3,4-Difluorophenyl)sulfonylamino)pentylamino-4-(2-pyridyl)thiazole hydrogen chloride] |  | 65 to 68 °C | 
5 | O=S(=O)(NCCCCCNc1nc(-c2ccccn2)cs1)c1ccccc1F (as salt: chloride) [Example 61, 2-(5-(2-Fluorophenyl)sulfonylamino)pentylamino-4-(2-pyridyl)-thiazole hydrogen chloride] |  | 60 to 63 °C | 
6 | CNc1nc(NCC2CCC(CNS(=O)(=O)c3cccc4ccccc34)CC2)nc(NC(C)C)n1 (centres unmarked) [Example 1, N1-{[4-({[4-(Isopropylamino)-6-(methylamino)-1,3,5-triazin-2-yl]amino}methyl)cyclohexyl]methyl}-1-naphthalenesulfonamide] | 200 nM |  | Ki ([1]; Table 1, read-out: Ki (nM) hNPY-5): 13 nM
7 | O=S(=O)(N[C@H]1CC[C@H](CNc2nc(-c3cccnc3)cs2)CC1)c1ccccc1F (as salt: chloride) [Example 86, trans-2-(4-(2-Fluorophenyl)sulfonylamino)cyclohexylmethyl-amino-4-(3-pyridyl)thiazole dihydrogen chloride] |  | 141 to 142 °C | 
8 | O=S(=O)(NCCCCCNc1nc(-c2ccccn2)cs1)C(F)(F)F (as salt: chloride) [Example 68, 2-(5-(Trifluoromethylsulfonylamino)pentyl)amino-4-(2-pyridyl)thiazole hydrogen chloride] |  | 63 to 65 °C | 
9 | O=S(=O)(NC[C@H]1CC[C@H](Nc2nc3c(s2)CCSc2ccccc2-3)CC1)c1cccc2cccnc12 [Example 157, N8-{[4-(4,5-Dihydrobenzo[2,3]thiepino[4,5-d][1,3]thiazol-2-ylamino)cyclohexyl]methyl}-8-quinolinesulfonamide] | 20 nM |  | Ki [1, 6]: 5.7 nM
10 | Cc1noc(C)c1S(=O)(=O)NCCCCCNc1nc(-c2ccncc2)cs1 (as salt: chloride) [Example 74, 2-(5-(3,5-Dimethylisoxazol-4-yl)sulfonylamino)pentylamino-4-(4-pyridyl)thiazole hydrogen chloride] |  | 108 to 109 °C | 
11 | CCNc1nc(NCC)nc(NCC2CCC(CNS(=O)(=O)c3cccs3)CC2)n1 (centres unmarked) [Example 37, N2-[4-([4,6-di(ethylamino)-1,3,5-triazin-2-yl]aminomethyl)cyclohexyl]methyl-2-thiophenesulfonamide] | 158 nM |  | Ki ([1]; Table 2, read-out: Ki (nM) hNPY-5): 55 nM
12 | Cc1noc(C)c1S(=O)(=O)N[C@H]1CC[C@H](CNc2nc(-c3ccccn3)cs2)CC1 (as salt: chloride) [Example 85, trans-2-(4-(3,5-Dimethyl-4-isoxazolyl)sulfonylamino)-cyclohexylmethylamino-4-(2-pyridyl)thiazole dihydrogen chloride] |  | 98 to 101 °C | 
13 | Cc1noc(C)c1S(=O)(=O)NCCCCCNc1nc(-c2cccnc2)cs1 (as salt: chloride) [Example 71, 2-(5-(3,5-Dimethylisoxazol-4-yl)sulfonylamino)pentylamino-4-(3-pyridyl)thiazole hydrogen chloride] |  | 114 to 115 °C | 
14 | CCS(=O)(=O)NCCCCCNc1nc(-c2ccccn2)cs1 (as salt: chloride) [Example 67, 2-(5-(Ethylsulfonylamino)pentyl)amino-4-(2-pyridyl)thiazole hydrogen chloride] |  | 49 to 51 °C | 

Reference: US7189720B2 (H. Lundbeck A/S, priority 1999, dated 2007)
